Patent US20140050778A1, “NUCLEIC ACID BINDING COMPOUNDS, METHODS OF MAKING, AND USE THEREOF” (UNIVERSITY OF ROCHESTER, priority 2010, published 2014)
“Also recorded” adds a separate entry of the source.

How the values were obtained:
(CUG)10 RNA = experiment: Fluorescence titration (benzo[g]quinoline quenching); type: binding; settings: (CUG)10, 1 μM compound in HBS-N
Method: The benzo[g]quinoline moiety is fluorescent, with excitation and emission maxima at 362 nm and 439 nm respectively in methanol. Fluorescence titration binding measurements were performed on a Cary Eclipse fluorescence spectrophotometer using a 10 mm path-length semimicro quartz fluorescence cell with 400 μL sample holding capacity. Absorbance measurements were carried out on a UV-Visible spectrophotometer (Shimadzu, UV-1601PC) using a 1 mL (1 cm path-length) quartz cell. Spectroscopic grade anhydrous methanol used in the measurement of relative quantum yield of the 2-ethyl benzo[g]quinoline carboxylic acid was purchased from Alfa Aesar and was used without further purification. For these measurements, known procedures were used (Lee and Grissom, “Design, Synthesis, and Characterization of Fluorescent Cobalamin Analogues with High Quantum Efficiencies,” Org. Lett. 11:2499-2502 (2009); Joseph R. Lakowicz, Principles of Fluorescence Spectroscopy, 2nd edition (Kluwer Academic/Plenum Publishers, 1999), which are hereby incorporated by reference in their entirety). Briefly, RNA (10 μM stock) in HBS-N buffer was titrated into a solution of 1 μM compound in HBS-N. After each addition of RNA, ten minutes were allowed for equilibration before recording the change in fluorescence at 468.5 nm. Fluorescence units (“FU”) were then corrected for dilution and the FU after each addition was subtracted from the FU at zero RNA concentration to give AFU. Following saturation, AFU was plotted against RNA concentration using Origin 7 (OriginLab, Inc.), and fitted to a 1:1 Langmuir binding model to obtain apparent dissociation constants (Kn). […]
Selected equilibrium affinities for (CUG)10 were confirmed by fluorescence titration. The quantum yield of the ethylbenzo[g]quinoline carboxylic acid (compound 2), relative to quinine sulfate, was determined to be 0.64 (FIGS. 5A-F). […] Apparent KD values measured in this manner are consistent with those obtained by SPR (Table 6); that they are not identical to SPR-measured values likely results from the differing formats of the two methods. […]

[1] = target: (CUG)10 RNA (SEQ ID NO: 3); experiment: SPR binding to immobilized biotinylated RNA
Method: (§1) SPR binding measurements were performed on a Biacore-X instrument (Biacore, Inc., Uppsala, Sweden) with two flow channels (FC1 and FC2). 5′-Biotinylated-RNA sequences, with a C6 linker separating the biotin label from the RNA (Integrated DNA Technologies Inc.) were immobilized on streptavidin (Rockland Immunochemicals) functionalized carboxylmethyl dextran coated sensor chips (CM5, G.E. Healthcare) using EDC/NHS (Advanced ChemTech) coupling chemistry. Filtered (0.2μ), degassed and autoclaved HBS-N buffer (0.01M Hepes, pH=7.4, 0.15 M NaCl) was employed as sample and as running buffer for all SPR experiments. A typical protocol for an experiment is as follows: A CM5 sensor chip was allowed to equilibrate to room temperature and then docked into the instrument. Following priming with running buffer, FC1 and FC2 were conditioned by manual injection of 20 μL aqueous NaOH (50 mM) at a flow rate of 30 μL/min. This was repeated 3 times followed by a wash command. Next, the carboxyl groups on the sensor chip surface in both flow cells were activated separately by injecting 60 μL of freshly prepared 1:1 mixture of EDC (0.4 M) and NHS (0.1 M) at a 5 μL/min flow rate followed by a wash. […] After washing, the surface was deactivated with 60 μL injection of ethanolamine (1M, pH=8.5) at 5 μL/min. The flow cells were primed, and the streptavidin surface in FC1 alone was blocked with 30 μL of biotin (20 μM in HBS-N) at 5 μL/min. The RNA (200 nM in running buffer, HBS-N) to be immobilized was unfolded by heating above its predicted melting temperature in a heated block for 2 min and then allowed to refold by cooling gradually to room temperature. The RNA was then immobilized in FC2 alone to response units ranging from 200-1000 RU using a 5 μL/min flow rate. Representative sensorgrams for the immobilization procedure is shown in FIGS. 2A-B. Two 20 μL aliquots of NaCl (0.5 M) were injected at a 30 μL/min flow rate to remove non-specifically bound RNA. The level of RNA immobilized was noted when the baseline was stable, usually after repeated buffer injection followed by a “prime” command. Binding measurements were performed by flowing various concentrations of the compounds to be analyzed over the immobilized RNA and recording the reference-subtracted (FC2−FC1) sensorgrams. For kinetic analysis, at least five sensorgrams corresponding to different concentrations of compound (usually ranging from 0.05-1 μM in HBS-N) were obtained using flow rates of either 60 μL/min or 30 μL/min. The experimental sensorgrams were globally fitted to a 1:1 binding equation (Biaevaluation software) to obtain association rates (ka) and dissociation rates ([…]) as well as equilibrium binding constants (KD). To measure the binding stoichiometry (n), the relations in equations (1-3) below were used: […]
(§2) where RUmax is the maximum resonance response unit at saturation, RURNA is the amount RU of RNA immobilized, n is the stoichiometry, MWcompound and MWRNA are molecular weights of compound and RNA respectively, and RUeq represents the resonance response at steady-state (equilibrium). The response units at equilibrium were subjected to Scatchard binding plots of (r/Cfree vs. r).
This technique allows the association and dissociation rates (ka and kd), equilibrium binding constants (KD), and the binding stoichiometry (n) to be measured in a label-free format (Liu and Wilson, “Quantitative Analysis of Small Molecule-nucleic Acid Interactions with a Biosensor Surface and Surface Plasmon Resonance Detection,” Methods Mol. Biol. 613:1-23 (2010), which is hereby incorporated by reference in its entirety).

[2] = test system: HIV-1 FSS RNA (SEQ ID NO: 7); experiment: SPR binding to immobilized biotinylated RNA
Method: as §1
as §2, with “r). […]” for “r).”
SPR and fluorescence titration experiments, performed using the protocol described in Examples 3 and 4 above, except using as the target a highly conserved RNA sequence responsible for regulating the production of the Gag-Pol polyprotein via a −1 ribosomal frameshift, which occurs along a “slippery sequence” in gag-pol mRNA (SEQ ID NO: 7). This “frameshift stimulatory sequence” (or “HIV-1 FSS”) consists of an upper stemloop and a lower stem, separated by a purine bulge in the most common types of HIV (FIG. 19). For the fluorescent titration experiments, the upper stemloop of SEQ ID NO: 7 was employed. Cell uptake and toxicity studies were carried out using human fibroblasts according to Example 5 above.

[3] = test system: (CCUG)10 RNA (SEQ ID NO: 4); experiment: SPR binding to immobilized biotinylated RNA; settings: (CCUG)10
Method: as §1, §2
(§3) The binding characteristics of compounds 3-11 were evaluated against pathogenic CUG^exp RNA and other RNA sequences by SPR. This technique allows the association and dissociation rates (ka and kd), equilibrium binding constants (KD), and the binding stoichiometry (n) to be measured in a label-free format (Liu and Wilson, “Quantitative Analysis of Small Molecule-nucleic Acid Interactions with a Biosensor Surface and Surface Plasmon Resonance Detection,” Methods Mol. Biol. 613:1-23 (2010), which is hereby incorporated by reference in its entirety). […]

[4] = test system: CUG-CAG duplex ("Duplex") (SEQ ID NO: 6); experiment: SPR binding to immobilized biotinylated RNA; settings: Duplex
Method: as §1, §2, §3

[5] = test system: (CAG)10 RNA (SEQ ID NO: 5); experiment: SPR binding to immobilized biotinylated RNA
Method: as §1, §2, §3

mouse C2C12 myoblasts = experiment: Cell permeability by fluorescence microscopy; type: cell-based; settings: 12 h, 125 μM, intrinsic fluorescence
Method: For cell permeability studies, human fibroblasts or mouse myoblasts grown to 80% confluence were exposed to compounds for 12 hours in a 96 well tissue culture plate. After removal of the culture media (DMEM, with 10% FBS, 1% pen-strep (GIBCO)) the cells were washed twice with PBS to remove excess compounds. Cells were then imaged while in buffer under a fluorescence microscope (Olympus IX70) in the 96-well plate using a 460 nm emission filter.

HSA^LR transgenic mice = experiment: MBNL1-dependent splicing in mouse myotonic dystrophy model (RT-PCR, vastus muscle); type: in vivo; settings: 40 mg/kg intraperitoneally once per day for 5 days
Method: Mouse handling and experimental procedures were conducted in accordance with the Association for Assessment and Accreditation of Laboratory Animal Care. […] Age- and gender-matched HSA^LR mice (12-16 weeks old) were injected intraperitoneally with 40 mg/kg of compounds or saline alone once per day for 5 days. Mice were sacrificed one day after the last injection, and vastus muscle was obtained for splicing analysis. RNA extraction, cDNA preparation, and RT-PCR were performed as described previously. The PCR products were electrophoresed on agarose gels for separation, and scanned with a laser fluorimager (Typhoon, GE Healthcare). Quantitative analysis of amplified products was performed by ImageQuant software (Molecular Dynamics). Differences between two groups were evaluated by unpaired Student's t-test. A critical test of a compound's performance is its ability to function in vivo. DM1 has several well-studied mouse models (Gomes-Pereira et al., “Myotonic Dystrophy Mouse Models: Towards Rational Therapy Development,” Trends Mol. Med. 17:506-517 (2011), which is hereby incorporated by reference in its entirety). Compound activity in the HSA^LR mouse model, in which transgenic mice carry a long CTG repeat inserted into the human skeletal actin (HSA) gene in skeletal muscle (Mankodi, “Myotonic Dystrophy in Transgenic Mice Expressing an Expanded CUG Repeat,” Science 289:1769-1772 (2000), which is hereby incorporated by reference in its entirety) was examined. […] They also display aberrant splicing of genes, including Clcn1 and Atp2a1, which are hallmarks of nuclear transcript sequestration.

SMILES | apparent KD ((CUG)10 RNA) | apparent KD ([1]; SPR, (CUG)10) | Residence time (t1/2) for compound binding to RNA [2] | Off-rates (koff) ([2]; SPR) | On-rates (kon) ([2]; SPR) | Residence time (t1/2) for compound binding to RNA [3] | Off-rates (koff) ([3]; SPR) | On-rates (kon) ([3]; SPR) | Residence time (t1/2) for compound binding to RNA [4] | Off-rates (koff) ([4]; SPR) | On-rates (kon) ([4]; SPR) | Residence time (t1/2) for compound binding to RNA [5] | Off-rates (koff) ([5]; SPR) | On-rates (kon) ([5]; SPR) | Residence time (t1/2) for compound binding to RNA ([1]; (CUG)10) | Off-rates (koff) ([1]; SPR, (CUG)10) | On-rates (kon) ([1]; SPR, (CUG)10) | sequence selectivity ([1]; SPR, CUG repeats versus other RNAs) | cell membrane penetration / localization (mouse C2C12 myoblasts) | improvement of Clcn1 splicing (HSA^LR transgenic mice)
C=CC[C@H](NC(=O)[C@@H]1CCCN1C(=O)c1cc2cc3ccccc3cc2nc1CC)C(=O)N[C@@H](CCCCN)C(=O)NCCCN [Compound 3] | No binding | no measurable affinity; also recorded: complete lack of binding | – | – | – | – | – | – | – | – | – | – | – | – | – | – | – | – | – | –
CCc1nc2cc3ccccc3cc2cc1C(=O)N[C@@H](CCCCN)C(=O)N[C@@H](C/C=C/C[C@H](NC(=O)[C@H](CCCCN)NC(=O)c1cc2cc3ccccc3cc2nc1CC)C(=O)N1CCC[C@H]1C(=O)NCCCN)C(=O)N1CCC[C@H]1C(=O)NCCCN [Compound 9] | – | reduced affinity | 5.775 min | 0.002 s⁻¹ | 32300 M⁻¹ s⁻¹ | 4.262 min | 0.00271 s⁻¹ | 19900 M⁻¹ s⁻¹ | 6.2097 min | 0.00186 s⁻¹ | 24300 M⁻¹ s⁻¹ | 3.3575 min | 0.00344 s⁻¹ | 15700 M⁻¹ s⁻¹ | 4.0527 min | 0.00285 s⁻¹ | 24200 M⁻¹ s⁻¹ | no selectivity for CUG or CCUG repeats relative to duplex CUG-CAG or HIV-1 FSS RNAs | significantly less able to enter cells than compounds 4, 5, or 11 | not
